{
  "source": "patent US20240299401A1",
  "about": "“NOVEL REDOX-BASED THERAPEUTIC APPROACH FOR TREATMENT OF CANCER” (THE PENN STATE RESEARCH FOUNDATION, priority 2020, published 2024)",
  "key": {"H1299": {"tested_on": "H1299", "assay": "WST-1 cytotoxicity, H1299", "assay_type": "cell-based, human", "settings": "Homo sapiens", "description": "(§1) Two different cytotoxicity/proliferation kit was used in this study i.e., WST-1 proliferation assay kit (Roche, Indianapolis, IN, USA; Cat #28620000) and Cell-titer Glo-luminescent cell viability assay (Promega, WI, USA; Cat #0000348721). Majority of the cell proliferation/cytotoxicity experiments were performed with WST-1 assay. Briefly, cells were seeded at the indicated density for 24 h in 96 well plate, media was replaced, and subsequently treated with the test compounds at different doses. […] Cell titer Glo-assay was additionally performed in certain cases to validate the results from WST-1 assay as outlined above following manufacturer's instructions and luminescence was measured using a FLx100 Luminometer (CLARIOSTAR®, Ortenbery, Germany). […] Other proliferation/cytotoxicity assays were also carried out i.e., Quant™-iT PicoGreen ds DNA assay kit (Thermo Scientific, Rockwood, TN, USA, P7589) following manufacturer's instructions, Trypan blue (Sigma, Ayrshire, UK, T8154) and acid phosphatase assay for validation of cytotoxicity/proliferation data from other assays."}, "[1]": {"tested_on": "Primary peripheral blood mononuclear cells", "assay": "WST-1 cytotoxicity, primary PBMCs", "settings": "Homo sapiens, PBMC, 24 h, read-out: Calculated IC50 values"}, "[2]": {"assay": "Toxicity in black mice (C57BL/6), 3 weeks", "assay_type": "in vivo", "settings": "sodium selenite or selenocystine 3 mg/kg, alone or with diphenyl diselenide 50 and 100 mg/kg", "description": "Black mice (C57BJ/6) mice were treated perorally every second day with either vehicle (canola oil) or diphenyl diselenide at two different dose levels (50 and 100 mg/kg body weight) for 3 weeks. Final body weight and weight of the major organs were measured at necropsy.\nBlack mice (C57BJ/6) mice were treated with vehicle (PBS i.p. and canola oil p.o.), sodium selenite (3 mg/kg body weight), selenocystine (3 mg/kg body weight), or in combinations with two different doses of diphenyl diselenide (50 and 100 mg/kg body weight) for 3 weeks. Final body weight and weight of the major organs were measured at necropsy."}, "H661": {"tested_on": "H661", "assay": "WST-1 cytotoxicity, H661", "assay_type": "cell-based, human", "settings": "Homo sapiens", "description": "as §1"}, "MCF-7": {"tested_on": "MCF-7", "assay": "WST-1 cytotoxicity, MCF-7", "assay_type": "cell-based, human", "settings": "Homo sapiens", "description": "as §1"}, "[3]": {"tested_on": "Primary Human hepatocytes", "assay": "WST-1 cytotoxicity, primary human hepatocytes", "settings": "Hepatocyte, 24 h, read-out: Calculated IC50 values"}, "A375": {"tested_on": "A375", "assay": "WST-1 cytotoxicity, A375", "assay_type": "cell-based", "settings": "Homo sapiens, A-375, 24 h, read-out: Calculated IC50 values", "description": "as §1"}, "A549": {"tested_on": "A549", "assay": "WST-1 cytotoxicity, A549", "assay_type": "cell-based, human", "settings": "Homo sapiens, A549, 24 h, read-out: Calculated IC50 values", "description": "as §1"}, "HL60": {"tested_on": "HL60", "assay": "WST-1 cytotoxicity and synergy analysis, HL60", "assay_type": "cell-based, human", "settings": "Homo sapiens", "description": "as §1"}, "HeLa": {"tested_on": "HeLa", "assay": "WST-1 cytotoxicity, HeLa", "assay_type": "cell-based", "settings": "Homo sapiens, 24 h, read-out: Calculated IC50 values", "description": "as §1"}, "SNB-19": {"tested_on": "SNB-19", "assay": "WST-1 cytotoxicity, SNB-19", "assay_type": "cell-based", "settings": "Homo sapiens, SNB-19, 24 h, read-out: Calculated IC50 values", "description": "as §1"}, "IGROV1": {"tested_on": "IGROV1", "assay": "WST-1 cytotoxicity, IGROV1", "assay_type": "cell-based, human", "settings": "Homo sapiens, IGROV-1, 24 h, read-out: Calculated IC50 values", "description": "as §1"}, "AML193": {"tested_on": "AML193", "assay": "WST-1 cytotoxicity, AML193", "assay_type": "cell-based", "settings": "Homo sapiens, 24 h, read-out: Calculated IC50 values", "description": "as §1"}, "Kasumi 6": {"tested_on": "Kasumi 6", "assay": "WST-1 cytotoxicity, Kasumi 6", "assay_type": "cell-based", "settings": "Homo sapiens, alone, 24 h, read-out: Calculated IC50 values", "description": "as §1"}, "NB4": {"tested_on": "NB4", "assay": "WST-1 cytotoxicity, NB4", "assay_type": "cell-based, human", "settings": "Homo sapiens", "description": "as §1"}, "HUH7": {"tested_on": "HUH7", "assay": "WST-1 cytotoxicity, HUH7", "assay_type": "cell-based", "settings": "Homo sapiens, Huh-7, 24 h, read-out: Calculated IC50 values", "description": "as §1"}, "Hep3B": {"tested_on": "Hep3B", "assay": "WST-1 cytotoxicity, Hep3B", "assay_type": "cell-based", "settings": "Homo sapiens, 24 h, read-out: Calculated IC50 values", "description": "as §1"}, "LS174T": {"tested_on": "LS174T", "assay": "WST-1 cytotoxicity, LS174T", "assay_type": "cell-based", "settings": "Homo sapiens, 24 h, read-out: Calculated IC50 values", "description": "as §1"}, "OV2008": {"tested_on": "OV2008", "assay": "WST-1 cytotoxicity, OV2008", "assay_type": "cell-based", "settings": "Homo sapiens, 24 h, read-out: Calculated IC50 values", "description": "as §1"}, "HepG2": {"tested_on": "HepG2", "assay": "WST-1 cytotoxicity, HepG2", "assay_type": "cell-based", "settings": "Homo sapiens, HepG2, 24 h, read-out: Calculated IC50 values"}, "8-MGBA": {"tested_on": "8-MGBA", "assay": "WST-1 cytotoxicity, 8-MGBA", "assay_type": "cell-based", "settings": "Homo sapiens, 8-MG-BA, 24 h, read-out: Calculated IC50 values", "description": "as §1"}, "[4]": {"settings": "cited from earlier work"}, "SHSY5-SY": {"tested_on": "SHSY5-SY", "assay": "WST-1 cytotoxicity, SHSY5-SY", "assay_type": "cell-based", "settings": "Homo sapiens, 24 h, read-out: Calculated IC50 values", "description": "as §1"}, "U1906L": {"tested_on": "U1906L", "assay": "WST-1 cytotoxicity, U1906L", "assay_type": "cell-based", "settings": "Homo sapiens, 24 h, read-out: Calculated IC50 values", "description": "as §1"}, "PANC-1": {"tested_on": "PANC-1", "assay": "WST-1 cytotoxicity, PANC-1", "assay_type": "cell-based", "settings": "Homo sapiens, PANC-1, 24 h, read-out: Calculated IC50 values", "description": "as §1"}, "U1906E": {"tested_on": "U1906E", "assay": "WST-1 cytotoxicity, U1906E", "assay_type": "cell-based", "settings": "Homo sapiens, 24 h, read-out: Calculated IC50 values", "description": "as §1"}, "THP-1": {"tested_on": "THP-1", "assay": "WST-1 cytotoxicity, THP-1", "assay_type": "cell-based", "settings": "Homo sapiens, THP-1, 24 h, read-out: Calculated IC50 values", "description": "as §1"}, "[5]": {"settings": "at 10.2 mg/m2 intravenously, human"}},
  "note": "Where two headings read alike, the source gives them in different places.",
  "data": [
    {"smiles": "O=[Se](O)O", "note": "[Sodium selenite, sodium selenite]", "values": [
      {"measurement": "IC50", "setting": "H1299; NCI-H1299, 24 h, read-out: Calculated IC50 values", "value": 5.25, "unit": "µM"},
      {"measurement": "IC50", "setting": "H1299; NCI-H1299, read-out: Calculated IC50 values of sodium selenite", "value": 5.25, "unit": "µM"},
      {"measurement": "IC50", "setting": "[1]", "value": 35, "unit": "µM"},
      {"measurement": "toxic effects (body and organ weight at necropsy)", "setting": "[2]", "value": "No demonstrated toxic effects could be observed"},
      {"measurement": "IC50", "setting": "H661; NCI-H661, 24 h, read-out: Calculated IC50 values", "value": 53.1, "unit": "µM"},
      {"measurement": "IC50", "setting": "H661; NCI-H661, read-out: Calculated IC50 values of sodium selenite", "value": 53.1, "unit": "µM"},
      {"measurement": "IC50", "setting": "MCF-7; MCF7, 24 h, read-out: Calculated IC50 values", "value": 8.55, "unit": "µM"},
      {"measurement": "IC50", "setting": "MCF-7; MCF7, read-out: Calculated IC50 values of sodium selenite", "value": 8.55, "unit": "µM"},
      {"measurement": "IC50", "setting": "[3]", "value": 202, "unit": "µM"},
      {"measurement": "IC50", "setting": "A375", "value": 6.14, "unit": "µM"},
      {"measurement": "IC50", "setting": "A549", "value": 2.86, "unit": "µM"},
      {"measurement": "IC50", "setting": "HL60; HL-60, 24 h, read-out: Calculated IC50 values", "value": 16, "unit": "µM"},
      {"measurement": "IC50", "setting": "HL60; HL-60, read-out: Calculated IC50 values of sodium selenite", "value": 16, "unit": "µM"},
      {"measurement": "IC50", "setting": "HeLa", "value": 0.64, "unit": "µM"},
      {"measurement": "IC50", "setting": "SNB-19", "value": 5.35, "unit": "µM"},
      {"measurement": "IC50", "setting": "IGROV1", "value": 5.08, "unit": "µM"},
      {"measurement": "IC50", "setting": "AML193", "value": 6.78, "unit": "µM"},
      {"measurement": "IC50", "setting": "Kasumi 6", "value": 25.7, "unit": "µM"},
      {"measurement": "IC50", "setting": "NB4; NB-4, 24 h, read-out: Calculated IC50 values", "value": 24.6, "unit": "µM"},
      {"measurement": "IC50", "setting": "NB4; NB-4, read-out: Calculated IC50 values of sodium selenite", "value": 24.6, "unit": "µM"},
      {"measurement": "IC50", "setting": "HUH7", "value": 3.53, "unit": "µM"},
      {"measurement": "IC50", "setting": "Hep3B", "value": 1.65, "unit": "µM"},
      {"measurement": "IC50", "setting": "LS174T", "value": 3.6, "unit": "µM"},
      {"measurement": "IC50", "setting": "OV2008", "value": 3.7, "unit": "µM"},
      {"measurement": "IC50", "setting": "HepG2", "value": 7.58, "unit": "µM"},
      {"measurement": "IC50", "setting": "8-MGBA", "value": 4.29, "unit": "µM"},
      {"measurement": "dose-limiting toxicity", "setting": "[4]; [5]", "value": "No dose-limiting toxicity"},
      {"measurement": "peak plasma total selenium concentrations", "setting": "[4]; [5]", "value": "15.0 to 23.0", "unit": "µM"},
      {"measurement": "plasma concentration (sodium selenite equivalent) that can be reached", "setting": "[4]; high dose intravenous administration, earlier clinical studies", "value": "> 20", "unit": "µM"},
      {"measurement": "Maximum-tolerated dose levels", "setting": "[4]; intravenously administered, human", "value": 10.2, "unit": "mg/m2"},
      {"measurement": "human tolerance limit", "setting": "[4]; intravenously for two weeks, phase I trial NCT01959438", "value": "10 mg sodium selenite/m^2 surface area/day"},
      {"measurement": "IC50", "setting": "SHSY5-SY", "value": 40.3, "unit": "µM"},
      {"measurement": "IC50", "setting": "U1906L", "value": 1.58, "unit": "µM"},
      {"measurement": "IC50", "setting": "PANC-1", "value": 7.87, "unit": "µM"},
      {"measurement": "IC50", "setting": "U1906E", "value": 2.44, "unit": "µM"},
      {"measurement": "IC50", "setting": "THP-1", "value": 0.79, "unit": "µM"}
    ]}
  ]
}
